Measured values taken from paper PMC4666032, “KPT-330, a potent and selective exportin-1 (XPO-1) inhibitor, shows antitumor effects modulating the expression of cyclin D1 and survivin in prostate cancer models” (BMC Cancer, 2015).

Tests used:
[1] = tested on: models of aggressive PCa; experiment: In vivo models of aggressive PCa (xenograft not specified); parameters: species or system mice
From the text: Male CD1 nude mice (Charles River, Milan, Italy) were maintained under the guidelines established by the University of L’Aquila, Medical School and Science and Technology School Board Regulations. Experiments on animals have been approved by your local IRB in compliance with the Italian government regulation n.116 January 27, 1992 for the use of laboratory animals which is line with ARRIVE guidelines. All mice received subcutaneous flank injections of 1 x 10^6 PC3, DU145 or 22v1 cells. Tumor growth was measured bi-weekly with a Vernier caliper (length x width). Tumor weight was calculated according to the formula: TW (mg) = tumor volume (mm^3) = d2 x D/2, where d and D are the shortest and longest diameters, respectively. The effects of the treatments were examined as previously described. […]
Mice were treated by oral gavage with either vehicle control (Pluronic F-68/PVP-K29/32), KPT330 or KPT251. […] In vivo, combinational studies were evaluated by CalcuSyn (Biosoft). For the calculation of CI, the values of cell kill for a fixed tumor volume were considered (determined by the log cell kill (LCK)). LCK was determined as LCKZ (TKC)/(3.3KTd), where Td represents the mean control group doubling time required to reach a fixed tumor volume, expressed in days, whereas T and C are the same values as described above.

[2] = tested on: PC3, DU145 and 22rv1; experiment: Molecular changes by immunoblots, ELISA and immunocytochemistry; format: cell-based, human
Method: (§1) Cytoplasmic and nuclear protein extracts were obtained by using the Nuclear/Cytosol Fractionation Kit from Biovision Inc. (Milpitas, CA, USA). Cell extracts and conditioned media from treated and untreated cells were electrophoresed under reducing conditions and transferred to nitrocellulose filter (Schleicher and Schuell GmbH, Dassel, Germany). Non specific binding sites were blocked for 1 h in 5 % non-fat dried milk in a Tris buffer containing 20 mM Tris and 137 mM NaCl (pH 7.6). Blots were incubated with 1 μg/ml of primary antibody diluted in blocking solution for 1 h at room temperature, washed and then incubated for 1 h in secondary antibody diluted 1:3000 in blocking solution. Following an additional wash, reactive bands were visualized by a chemiluminescent detection kit (Supersignal, Perbio Science, Tattenhall, UK) using Bio-Rad gel Doc™ (Bio-Rad Laboratories S.r.l., Milan, Italy).
(§2) The molecular pathways that are induced by XPO-1 inhibition were evaluated by immunoblots, ELISA and immunocytochemical analyses performed in PC3, DU145 and 22rv1 as models of CRPC using 100 nM KPT-330 as reference compound. The effects were monitored in early and chronic treatments. […] In Fig. 3a, we show representative western blots for nuclear and cytoplasm expression of cyclin D1 and XPO-1 in PC3 cell extracts after 2–12 hr of treatment with KPT-330. […] In addition, prolonged treatment with KPT-330 determined a reduction of cyclin D1 protein expression in DU145 cell lines (Fig. 3c). Increased nuclear expression of FOXO3a is visible also by IHC (Fig. 3e) in 22rv1 cells treated with KPT-330. […] Therefore, the inhibition of XPO-1-mediated export machinery may enhance AR signaling (manuscript in preparation). […] Although proteasome inhibitors are considered for treatment of solid tumors, these compounds could reduce the effectiveness of selinexor, requiring further investigation.

[3] = tested on: 22rv1 cells; experiment: Western blot of nuclear proteins; format: cell-based, human; conditions: 100 nM
Method: as §1, §2

[4] = tested on: PC3 cells; experiment: Western blot of nuclear proteins; format: cell-based, human; conditions: 100 nM, 2-12 hrs
Method: as §1, §2

`O=C(/C=C\n1cnc(-c2cc(C(F)(F)F)cc(C(F)(F)F)c2)n1)NNc1cnccn1` [KPT-330] was tested, and the “antitumor effects compared to KPT-251” value ([1]; at similar dosage) was “better antitumor effects”, the “tumor volume relative to docetaxel-treated animals” value ([1]; internal control docetaxel, data not shown) was “approximately one-third” and the cell cycle distribution ([2]; 100 nM, 24, 48 and 72 hrs) was “accumulation of cells in the G1 cell cycle phase with loss of cells in the S and G2/M phase”. The “XPO-1 localization, early treatment” value ([2]; 100 nM, early treatment) was “early XPO-1 nuclear accumulation”, the “cyclin D1 cytosolic levels” value ([2]; 100 nM, early treatment) was “strongly reduced” and the “cyclin D1 nuclear expression” value ([2]; 100 nM, early treatment) was “increased”. The “XPO-1 protein levels, prolonged treatment” value ([2]; 100 nM, prolonged treatments) was “dramatically reduced”, the “nuclear export of survivin” value ([2]; PCa cell lines, Western blots and ELISAs, 100 nM) was “reduced” and the “total expression of AR, prolonged exposure” value ([3]; 22rv1 cells, prolonged exposure) was “significantly reduced”. The “nuclear expression of p53 and MDM2” value ([3]; AR+/p53wt 22rv1 cells) was “increased”, the “nuclear expression of AR” value ([3]; AR+/p53wt 22rv1 cells, early) was “increased” and the “nuclear FOXO, p21, p27, cyclin B1” value [4] was “nuclear accumulation”.
